What was measured:
MtFBA [1] = target: T1, MtFBA (Mycobacterium tuberculosis (strain ATCC 25618 / H37Rv), UniProt P9WQA3); type: binding; settings: 25° C.
[2] = Calorimetric titration into MtFBA buffer with 200 μM ZnCl2 (no enzyme); type: binding; settings: 1 mM compound titrated into MtFBA buffer with 200 μM ZnCl2, 25° C.
Method: FIG. 5 provides data from the calorimetric titration of HCA. […] Top graphs represent raw heat data and bottom graphs are integrated heat peaks gained at 25° C.
Top graphs represent raw heat data and bottom graphs are integrated heat peaks gained at 25° C. from 25 injections of Regis 5 into 170 μL of 20 mM Tricine pH 8.0, 100 mM NaCl, and either (a) 700 μM MtFBA with 100 μM ZnCl2 or (b) 200 μM ZnCl2. Data sets were collected in duplicate, analyzed with NanoAnalyze™ software, and fit to an independent model concurrently with a bank constant model to adjust for a heat of dilution.

MtFBA [3] = target: T1, MtFBA; experiment: MtFBA enzyme inhibition; type: biochemical; settings: for % Inhibition at 1 mM: 1 mM compound
[4] = target: class IIa FBA isolated from E. coli (Escherichia coli (strain K12), UniProt P0AB71); experiment: Inhibition of class IIa FBA from E. coli; type: biochemical; settings: 25 μM HCA
class IIa FBA isolated from E. coli, sequence (P0AB71 whole entry, looked up): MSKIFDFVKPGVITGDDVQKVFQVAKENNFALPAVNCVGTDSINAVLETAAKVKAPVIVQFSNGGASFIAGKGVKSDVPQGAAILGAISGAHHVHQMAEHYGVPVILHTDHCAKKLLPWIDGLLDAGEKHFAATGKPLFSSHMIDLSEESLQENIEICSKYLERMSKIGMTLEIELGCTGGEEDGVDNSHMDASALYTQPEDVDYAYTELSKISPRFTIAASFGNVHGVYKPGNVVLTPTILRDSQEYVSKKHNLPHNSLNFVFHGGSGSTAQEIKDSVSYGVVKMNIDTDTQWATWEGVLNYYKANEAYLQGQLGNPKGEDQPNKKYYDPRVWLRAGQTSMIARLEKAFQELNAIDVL
Method: Class II FBAs can be broken down into two families (a/b) whose distribution among bacterium is independent of Gram staining determined phylogenetic groups. In this illustration, a single concentration of HCA at 25 μM was tested for the inhibition of class IIa FBA isolated from E. coli and class IIb FBA originating from methicillin-resistant S. aureus (MRSA).
Error bars represent standard deviations from the average.

class I FBA [5] = target: class I FBA (Oryctolagus cuniculus (Rabbit), UniProt P00883); experiment: Inhibition of class I FBA from rabbit muscle; type: biochemical; settings: concentrations as high as 1 mM
class I FBA (Oryctolagus cuniculus (Rabbit), UniProt P00883), sequence (P00883 whole entry, looked up): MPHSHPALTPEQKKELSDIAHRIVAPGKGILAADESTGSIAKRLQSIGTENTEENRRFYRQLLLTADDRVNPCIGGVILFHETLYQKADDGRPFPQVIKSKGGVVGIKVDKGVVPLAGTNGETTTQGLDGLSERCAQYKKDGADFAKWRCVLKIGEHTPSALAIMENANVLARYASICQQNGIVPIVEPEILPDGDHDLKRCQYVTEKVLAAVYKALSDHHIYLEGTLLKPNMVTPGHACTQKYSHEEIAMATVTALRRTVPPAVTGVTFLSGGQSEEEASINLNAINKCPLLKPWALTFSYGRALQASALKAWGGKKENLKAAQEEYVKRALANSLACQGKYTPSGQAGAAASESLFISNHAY

class I FBA [6] = settings: human muscle, concentrations as high as 1 mM

What does the source list for `O=C(O)c1ccc2cccc(O)c2n1` [Compound 5]?
n (ITC stoichiometry) (MtFBA [1]): 0.94±0.14; ΔH (MtFBA [1]; ITC): -6.867 ± 0.139 kcal/mol; ΔS (MtFBA [1]; ITC): 2.44±3.12 J mol^−1 K^−1; Kd (MtFBA [1]; ITC, 5 mM compound into 700 μM MtFBA, 20 mM Tricine pH 8.0, 100 mM NaCl, 100 μM ZnCl2, read-out: dissociation constant Kd): 6.94 ± 0.97 µM; binding to buffer Zn(II) [2]: no appreciable binding; IC50 (MtFBA [3]; FIG. 6A inset, serial dilutions of compound): 17 ± 2.1 µM; IC50 (MtFBA [3]; SAR table): 14 ± 2 µM; inhibition at 1000 µM (MtFBA [3]; read-out: % Inhibition at 1 mM): 95 ± 4.1%; % inhibition [4]: 42.2±2.8%; inhibition of class I FBA (class I FBA [5]): no inhibitory affects; inhibition of class I FBA (class I FBA [6]): no inhibitory affects

Which “increase in potency toward the enzyme relative to HCA” value (MtFBA [3]; fluorine at position 6 versus HCA) does the source give for `O=C(O)c1ccc2cc(F)cc(O)c2n1` [Compound 6F-HCA, 6-fluoro-8-hydroxyquinoline-2-carboxylic acid] here?
Its value is 50%.

What does the source list for `Oc1cccc2cccnc12` [Compound 6]?
% Inhibition at 1 mM (MtFBA [3]): 54 ± 18%; IC50 (MtFBA [3]; SAR table): 300 ± 67 µM

For `Nc1cccc2cccnc12` [Compound 18], which “% Inhibition at 1 mM” value (MtFBA [3]) is on record?
The value was 68 ± 2.2%.

And the IC50 (MtFBA [3]; SAR table)?
Its IC50 is 79 ± 10 µM.

Which “% Inhibition at 1 mM” value (MtFBA [3]) does the source give for `CS(=O)(=O)Nc1ccc2cccc(O)c2n1` [Compound 34] here?
The value was 12 ± 5.4%.

And the IC50 (MtFBA [3]; SAR table)?
The IC50 was 570 ± 87 µM.

From patent publication US9394254B2, “Antibiotic and anti-parasitic agents that modulate class II fructose 1,6-bisphosphate aldolase” (priority 2013, dated 2016)
